The text below walks through data of ChEMBL document CHEMBL5236551, “Andrographolide and its derivatives: Current achievements and future perspectives” (Eur J Med Chem, 2021).

The structures appear in SMILES notation. pIC50: −log10 of the molar value. ≈ marks a conversion by molar mass, not a printed value. Where “and” joins values, the source holds several entries; their conditions need not be identical. Identical values can stand only once.

For one test, the system named is Chikungunya virus. As to the kind of experiment: Antiviral activity against Chikungunya virus. It counts as functional, organism-based.
For another test, the system named is K562. As to the kind of experiment: Antiproliferative activity against human K562 cells assessed as reduction in cell viability by MTT assay. It counts as functional, cell-based.
Test [1] in a line: Inhibition of mesenchymal transformation in human A549 cells assessed as inhibition rate relative to control. It counts as functional.
Test [2] is described as follows: Antimigratory activity against human LX2 cells assessed as inhibition rate relative to control. It counts as functional, LX-2.
The next test has as its system MDA-MB-231. As to the kind of experiment: Antitumor activity against human MDA-MB-231 cells assessed as tumor growth inhibition. It counts as functional, cell-based.
A further test has as its system MDA-MB-361. As to the kind of experiment: Antitumor activity against human MDA-MB-361 cells assessed as tumor growth inhibition. It counts as functional, cell-based.
The next test concerns enterovirus D68. As to the kind of experiment: Antiviral activity against Enterovirus D68 infected in human RD cells assessed as inhibition of viral replication measured after 48 hrs by qRT-PCR analysis. The conditions noted are these: Enterovirus D. It counts as functional, organism-based.
Test [3] in a line: Antiviral activity against DENV2 infected in human HepG2 cells incubated for 1 hrs by plaque assay. The conditions noted are these: Dengue virus, HepG2, 1 h. It counts as functional, cell-based, dengue virus type 2.
The test system of another test is KBM5. As to the kind of experiment: Antiproliferative activity against human KBM5 cells assessed as reduction in cell viability by MTT assay. It counts as functional, cell-based.
The next test has as its system HK-2. As to the kind of experiment: Antiproliferative activity against human HK-2 cells. It counts as functional, cell-based.
Test [4] can be described thus: Antiviral activity against DENV2 infected in human HeLa cells incubated for 1 hrs by plaque assay. The conditions noted are these: Dengue virus. It counts as functional, cell-based, dengue virus type 2.
The test system of the next test is Staphylococcus aureus. As to the kind of experiment: Antibacterial activity against Staphylococcus aureus MTCC 96 assessed as bacterial growth inhibition by broth micro-dilution assay. It counts as functional.
Another test relates to MCF7. As to the kind of experiment: Cytotoxicity against human MCF7 cells. It counts as functional, cell-based.
Test [5] is described as follows: Antimigratory activity against human Cardiac fibroblast cells assessed as inhibition rate relative to control. It counts as functional.
A further test relates to BT-549. As to the kind of experiment: Antiproliferative activity against human BT-549 cells. It counts as functional, cell-based.
A further test relates to T47D. As to the kind of experiment: Antiproliferative activity against human T47D cells. It counts as functional, cell-based.
Test [6] concerns Human immunodeficiency virus. As to the kind of experiment: Antiviral activity against HIV infected in human C8166 cells. It counts as functional, organism-based.
The test system of the next test is HCT-116. As to the kind of experiment: Antiproliferative activity against human HCT-116 cells assessed as cell growth inhibition measured after 48 hrs by MTT assay. The conditions noted are these: HCT-116, 48 h. It counts as functional, cell-based.
Test [7] in a line: Antiviral activity against HIV infected in human MT2 cells. The conditions noted are these: Human immunodeficiency virus 1, MT2. It counts as functional, cell-based.
Another test concerns Rattus norvegicus. As to the kind of experiment: Anti-inflammatory activity against egg white-induced paw edema in rat model assessed as detumescence rate measured after 6 hrs relative to control. It counts as functional.

In the case of `C=C1CC[C@@H]2[C@](C)(CO)[C@H](O)CC[C@@]2(C)[C@@H]1C/C=C1/C(=O)OC[C@H]1O` [ANDROGRAPHOLIDE], the pIC50 was 6.22 in the test with Chikungunya virus; 4.63 with K562; 4.69 in the test with MDA-MB-231; 4.50 in the test with MDA-MB-361; 5.46 with enterovirus D68; 4.68 in test [3]. For the same compound, the negative logarithm of the IC50 (pIC50) with KBM5 was 5.07; with HK-2 it was 4.51; in [4], 4.64; with MCF7 it was 4.45; in the test with BT-549, 4.63; with T47D, 4.49. Moreover, the pIC50 in [6] is 5.10 and 5.63; with HCT-116, 4.50; in test [7] it was 3.85. Further, the “inhibition (INH)” value in [1] came out at 55%; in test [2], 15%; in test [5], 35%; in the test with Rattus norvegicus, 74.42%. Moreover, the minimum inhibitory concentration (MIC) in the test on Staphylococcus aureus came to 100 µg/mL (≈ 285 µM).
